Like-named read-outs stand apart in the source and are kept apart here.
Test: Timed organ biodistribution of [^64Cu]Cu-DOTATATE by ex vivo gamma counting
Assay type: in vivo, mice
Conditions: mouse, intravenous, 1.85 MBq, total radioactivity, median (IQR); for tissue uptake at 1 min: 1 min after injection; for tissue uptake at 5 min: 5 min after injection; for tissue uptake at 0.25 h: 15 min after injection; for tissue uptake at 0.5 h: 30 min after injection; for tissue uptake at 2 h: 120 min after injection; for tissue uptake at 1 h: 60 min after injection
Experimental: Wild-type and atherosclerotic animals were injected with approximately 1.85 MBq of [^64Cu]Cu-DOTATATE and euthanized at either 1, 5, 15, 30, 60 or 120 min after injection (Supplementary Fig. S1A) to evaluate the tracer’s biodistribution. After euthanasia, an insulin syringe was used to collect blood samples from the right ventricle. Blood samples were used for the establishment of pharmacokinetics profile. Mice were then perfused with 20 mL of phosphate-buffered saline (PBS) and tissues of interest (heart, aorta, bone marrow, spleen, liver, stomach, bladder, kidneys, intestines, lungs, adrenal gland, muscles and pancreas) were harvested. Tissues were blotted for gamma counting on a Wizard2 2480 automatic gamma counter (Perkin Elmer, Waltham, MA). Values were corrected for decay and normalized to tissue weight to express radioactivity concentration as percentage injected dose per gram (%ID/g). […] To investigate the tracer’s distribution within different blood compartments, after gamma counting, 100 μL of blood were spun down at 2000 g for 15 min at 4 °C. Plasma (supernatant) and cells (pellet) were gamma counted and expressed as percentage of total activity. The remainder of the blood was separated using Lymphoprep density gradient medium (Nycomed Pharma, Zurich, Switzerland) following manufacturer’s instructions. Percentage of activity in mononuclear and polynuclear cells was calculated.

[1] = abdominal aorta, female Apoe^-/- mice 12 weeks on Western Diet, N=3-8, read-out: Tissue radioactivity, abdominal aorta
[2] = abdominal aorta, female C57BL/6 mice, N=3-7, read-out: Tissue radioactivity, abdominal aorta
[3] = adrenal gland, female Apoe^-/- mice 12 weeks on Western Diet, N=3-8, read-out: Tissue radioactivity, adrenal gland
[4] = adrenal gland, female C57BL/6 mice, N=3-7, read-out: Tissue radioactivity, adrenal gland
[5] = aortic arch, female Apoe^-/- mice 12 weeks on Western Diet, N=3-8, read-out: Tissue radioactivity, aortic arch
[6] = aortic arch, female C57BL/6 mice, N=3-7, read-out: Tissue radioactivity, aortic arch
[7] = bladder, female Apoe^-/- mice 12 weeks on Western Diet, N=3-8, read-out: Tissue radioactivity, bladder
[8] = bladder, female C57BL/6 mice, N=3-7, read-out: Tissue radioactivity, bladder
[9] = bone marrow, female Apoe^-/- mice 12 weeks on Western Diet, N=3-8, read-out: Tissue radioactivity, bone marrow
[10] = bone marrow, female C57BL/6 mice, N=3-7, read-out: Tissue radioactivity, bone marrow
[11] = fat, female Apoe^-/- mice 12 weeks on Western Diet, N=3-8, read-out: Tissue radioactivity, fat
[12] = fat, female C57BL/6 mice, N=3-7, read-out: Tissue radioactivity, fat
[13] = heart, female Apoe^-/- mice 12 weeks on Western Diet, N=3-8, read-out: Tissue radioactivity, heart
[14] = heart, female C57BL/6 mice, N=3-7, read-out: Tissue radioactivity, heart
[15] = kidneys, female Apoe^-/- mice 12 weeks on Western Diet, N=3-8, read-out: Tissue radioactivity, kidneys
[16] = kidneys, female C57BL/6 mice, N=3-7, read-out: Tissue radioactivity, kidneys
[17] = large intestine, female Apoe^-/- mice 12 weeks on Western Diet, N=3-8, read-out: Tissue radioactivity, large intestine
[18] = large intestine, female C57BL/6 mice, N=3-7, read-out: Tissue radioactivity, large intestine
[19] = liver, female Apoe^-/- mice 12 weeks on Western Diet, N=3-8, read-out: Tissue radioactivity, liver

tissue uptake at 1 min [1]: 3.1 %ID/g
tissue uptake at 5 min [1]: 3.2 %ID/g
tissue uptake at 0.25 h [1]: 2.1 %ID/g
tissue uptake at 0.5 h [1]: 2.5 %ID/g
tissue uptake at 2 h [1]: 2.1 %ID/g
tissue uptake at 1 min [2]: 5.1 %ID/g
tissue uptake at 5 min [2]: 3.8 %ID/g
tissue uptake at 0.25 h [2]: 2.4 %ID/g
tissue uptake at 0.5 h [2]: 1.7 %ID/g
tissue uptake at 1 h [2]: 1.3 %ID/g
tissue uptake at 2 h [2]: 0.7 %ID/g
tissue uptake at 1 min [3]: 1.4 %ID/g
tissue uptake at 5 min [3]: 1.2 %ID/g
tissue uptake at 0.25 h [3]: 1.4 %ID/g
tissue uptake at 0.5 h [3]: 1.5 %ID/g
tissue uptake at 1 h [3]: 1.4 %ID/g
tissue uptake at 2 h [3]: 1.1 %ID/g
tissue uptake at 0.25 h [4]: 1.7 %ID/g
tissue uptake at 0.5 h [4]: 1.6 %ID/g
tissue uptake at 1 h [4]: 1.6 %ID/g
tissue uptake at 2 h [4]: 0.6 %ID/g
tissue uptake at 1 min [5]: 2.9 %ID/g
tissue uptake at 0.25 h [5]: 1.7 %ID/g
tissue uptake at 0.5 h [5]: 1.7 %ID/g
tissue uptake at 1 min [6]: 2.8 %ID/g
tissue uptake at 0.25 h [6]: 1.3 %ID/g
tissue uptake at 0.5 h [6]: 1.1 %ID/g
tissue uptake at 1 h [6]: 1.1 %ID/g
tissue uptake at 2 h [6]: 1.2 %ID/g
tissue uptake at 1 min [7]: 1.7 %ID/g
tissue uptake at 5 min [7]: 98.7 %ID/g
tissue uptake at 0.25 h [7]: 38.9 %ID/g
tissue uptake at 0.5 h [7]: 2.9 %ID/g
tissue uptake at 1 h [7]: 4.7 %ID/g
tissue uptake at 2 h [7]: 2.4 %ID/g
tissue uptake at 1 min [8]: 4.6 %ID/g
tissue uptake at 5 min [8]: 36.4 %ID/g
tissue uptake at 0.25 h [8]: 7.9 %ID/g
tissue uptake at 0.5 h [8]: 6.8 %ID/g
tissue uptake at 2 h [8]: 10.4 %ID/g
tissue uptake at 1 min [9]: 3.1 %ID/g
tissue uptake at 5 min [9]: 2.3 %ID/g
tissue uptake at 0.25 h [9]: 2.6 %ID/g
tissue uptake at 2 h [9]: 2.7 %ID/g
tissue uptake at 5 min [10]: 4.3 %ID/g
tissue uptake at 0.25 h [10]: 3.5 %ID/g
tissue uptake at 1 h [10]: 2.1 %ID/g
tissue uptake at 2 h [10]: 2.5 %ID/g
tissue uptake at 1 min [11]: 0.3 %ID/g
tissue uptake at 5 min [11]: 0.4 %ID/g
tissue uptake at 0.25 h [11]: 0.4 %ID/g
tissue uptake at 0.5 h [11]: 0.3 %ID/g
tissue uptake at 1 h [11]: 0.2 %ID/g
tissue uptake at 2 h [11]: 0.2 %ID/g
tissue uptake at 1 min [12]: 1.1 %ID/g
tissue uptake at 5 min [12]: 1.3 %ID/g
tissue uptake at 0.25 h [12]: 0.8 %ID/g
tissue uptake at 0.5 h [12]: 0.5 %ID/g
tissue uptake at 1 h [12]: 0.3 %ID/g
tissue uptake at 2 h [12]: 0.2 %ID/g
tissue uptake at 1 min [13]: 2.3 %ID/g
tissue uptake at 5 min [13]: 1.4 %ID/g
tissue uptake at 0.25 h [13]: 1.1 %ID/g
tissue uptake at 1 h [13]: 1.3 %ID/g
tissue uptake at 2 h [13]: 1.4 %ID/g
tissue uptake at 1 min [14]: 3.8 %ID/g
tissue uptake at 5 min [14]: 2.1 %ID/g
tissue uptake at 0.25 h [14]: 1.1 %ID/g
tissue uptake at 1 h [14]: 0.8 %ID/g
tissue uptake at 2 h [14]: 0.7 %ID/g
tissue uptake at 1 min [15]: 15.6 %ID/g
tissue uptake at 5 min [15]: 22.9 %ID/g
tissue uptake at 0.25 h [15]: 13.2 %ID/g
tissue uptake at 0.5 h [15]: 8.8 %ID/g
tissue uptake at 1 min [16]: 26.8 %ID/g
tissue uptake at 5 min [16]: 20.5 %ID/g
tissue uptake at 0.25 h [16]: 11.5 %ID/g
tissue uptake at 0.5 h [16]: 8.2 %ID/g
tissue uptake at 1 h [16]: 6.1 %ID/g
tissue uptake at 1 min [17]: 1.3 %ID/g
tissue uptake at 5 min [17]: 1.3 %ID/g
tissue uptake at 0.5 h [17]: 2.8 %ID/g
tissue uptake at 2 h [17]: 3.8 %ID/g
tissue uptake at 1 min [18]: 2.7 %ID/g
tissue uptake at 5 min [18]: 1.6 %ID/g
tissue uptake at 0.5 h [18]: 1.7 %ID/g
tissue uptake at 1 h [18]: 3 %ID/g
tissue uptake at 2 h [18]: 3.1 %ID/g
tissue uptake at 1 min [19]: 4.4 %ID/g
tissue uptake at 5 min [19]: 4.9 %ID/g
tissue uptake at 0.25 h [19]: 8.6 %ID/g
Compound: C[C@@H](O)[C@H](NC(=O)[C@@H]1CSSC[C@H](NC(=O)[C@@H](Cc2ccccc2)NC(=O)CN2CCN(CC(=O)O)CCN(CC(=O)O)CCN(CC(=O)O)CC2)C(=O)N[C@@H](Cc2ccc(O)cc2)C(=O)N[C@H](Cc2c[nH]c3ccccc23)C(=O)N[C@@H](CCCCN)C(=O)N[C@@H]([C@@H](C)O)C(=O)N1)C(=O)O [[^64Cu]Cu-DOTATATE, metal not drawn]

Reference: paper PMC9007951, “Systematically evaluating DOTATATE and FDG as PET immuno-imaging tracers of cardiovascular inflammation” (Scientific Reports, 2022)
